Key:
[1] = in vivo; cited from earlier work
[2] = Other clinical studies and experience to date with intravenous allopregnanolone; settings: all AEs reported to date
TBI = assay: Treatment of subjects with TBI at the starting dose; settings: starting dose (29 μg/kg/hr), 11 subjects with TBI
essential tremor = assay: Clinical trial of allopregnanolone injection in essential tremor (Stage One placebo-controlled crossover, low-dose; Stage Two open-label, high-dose)
[3] = tested on: severe postpartum depression (PPD); assay: Clinical study of allopregnanolone injection in adult female patients with severe postpartum depression
SRSE = assay: Continuous infusion allopregnanolone under emergency-use INDs for SRSE

| Structure (SMILES) | Exposure of breast-feeding infant [1] | AEs reported to date [2] | SAEs at the starting dose (TBI) | Tolerability of the maintenance dose (essential tremor; 86 mcg/kg/hour, Stage One) | Adverse events reported (essential tremor; Stage One, arms not distinguished, one case each of phlebitis, somnolence, abnormal dreams, back pain, nasal congestion, headache, fatigue, nausea, two cases of dizziness) | Sedation scores versus placebo (essential tremor; conclusion of Stage One) | Measures of activity in essential tremor (accelerometer and TETRAS scores) versus placebo (essential tremor; conclusion of Stage One, maintenance dose 86 mcg/kg/hour) | Response (relief from symptoms) after treatment ([3]; after treatment) | Clinical Global Impression-Improvement (CGI-I) scale ([3]; all four patients) | Remission as measured by HAM-D during the treatment period ([3]; all four patients) | Tolerability ([3]; all patients, on therapy or during the 30-day follow-up period) | Time to improvement of symptoms after treatment ([3]; four patients (e.g., within 24 hours, within 12 hours after treatment)) | Mean HAM-D score at baseline ([3]; four patients, baseline, >24.0 is severe) | Mean HAM-D score by the end of the treatment period ([3]; four patients, end of treatment period, below 7.0 is symptom-free) | Time to improvement in depression after administration ([3]; four women with severe PPD) [h] | Improvement in depression, number of women ([3]; women with severe PPD, intravenous administration) | Drug-related SAEs at the target/maximum level of exposure (SRSE; 150 nM exposure, 6 subjects with SRSE, continuous infusion) | Drug-related serious adverse events at maintenance dose (SRSE; 150 mcg/kg/hour, six subjects with SRSE) |
| --- | --- | --- | --- | --- | --- | --- | --- | --- | --- | --- | --- | --- | --- | --- | --- | --- | --- | --- |
| Cc1ncc2n1-c1ccc(Cl)cc1C(c1ccccc1F)=NC2 [midazolam] | less than 0.1 % of the maternal dose | – | – | – | – | – | – | – | – | – | – | – | – | – | – | – | – | – |
| CC(=O)[C@H]1CC[C@H]2[C@@H]3CC[C@H]4C[C@H](O)CC[C@]4(C)[C@H]3CC[C@]12C [allopregnanolone, 3 alpha-hydroxy-5 alpha-pregnan-20-one] | – | mild and non-serious | no SAEs reported | good tolerability | 10 | no clear difference | no clear difference | sustained | consistent improvement | rapidly achieved remission | well-tolerated | one | 26.5 | 1.8 | ≤ 24 | four of four | no drug-related SAEs reported | without any drug-related serious adverse events |
| CC(C)c1cccc(C(C)C)c1O [propofol] | less than 0.1 % of the maternal dose | – | – | – | – | – | – | – | – | – | – | – | – | – | – | – | – | – |

— US12083131B2 (priority 2014, dated 2024)
